Laboratory results as given in patent publication US20020052295A1, “Diacyl derivatives of propylene diamine having herbicidal activity” (priority 1999, published 2002).

How the values were obtained:
SORVU = assay: Post-emergence herbicidal activity on SORVU (shattercane); format: in vivo, Sorghum vulgare; details: post-emergence spray; lowest tested rate with 80% or greater inhibition; about 14 days after treatment
How it was run: (§1)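 Seeds are sown in topsoil, covered with topsoil/Rediearth, and subirrigated until plants reach treatment stage (typically 9 to 14 days). Plants are then sprayed with compound in 50:50 acetone and water at 3,100 l/ha. Inhibition is rated against untreated plants at about 14 days.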

ECHCG [1] = assay: Post-emergence herbicidal activity on ECHCG (barnyardgrass); format: in vivo, Echinochloa crus-galli; details: post-emergence spray; lowest tested rate with 80% or greater inhibition; about 14 days after treatment
How it was run: as §1

ECHCG [2] = assay: Pre-emergence herbicidal activity on ECHCG (barnyardgrass); format: in vivo, Echinochloa crus-galli; details: lowest tested rate giving 80% or greater inhibition, approx. 14 days after planting and treating, greenhouse
How it was run: (§2)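 Pre-emergence soil application; seeds covered with sterilized fertilized topsoil, compound in acetone/water (50:50) applied to surface. 30/21 °C greenhouse, overhead irrigation 0.64 cm then mist/subirrigation. Readout: % inhibition vs untreated at ~14 d; GR80 value, max rate typically 1000 g/ha.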

CHEAL [3] = assay: Post-emergence herbicidal activity on CHEAL (common lambsquarters); format: in vivo, Chenopodium album; details: post-emergence spray; lowest tested rate with 80% or greater inhibition; about 14 days after treatment
How it was run: as §1

SOLNI [4] = assay: Pre-emergence herbicidal activity on SOLNI (black nightshade); format: in vivo, Solanum nigrum; details: lowest tested rate giving 80% or greater inhibition, approx. 14 days after planting and treating, greenhouse
How it was run: as §2

PANMI [5] = assay: Post-emergence herbicidal activity on PANMI (wild proso millet); format: in vivo, Panicum miliaceum; details: post-emergence spray; lowest tested rate with 80% or greater inhibition; about 14 days after treatment
CIRAR [6] = assay: Pre-emergence herbicidal activity on CIRAR (canada thistle, seedling); format: in vivo, Cirsium arvense; details: lowest tested rate giving 80% or greater inhibition, approx. 14 days after planting and treating, greenhouse
How it was run: as §2

PANMI [7] = assay: Pre-emergence herbicidal activity on PANMI (wild proso millet); format: in vivo, Panicum miliaceum; details: lowest tested rate giving 80% or greater inhibition, approx. 14 days after planting and treating, greenhouse
How it was run: as §2

POROL [8] = assay: Pre-emergence herbicidal activity on POROL (common purslane); format: in vivo, Portulaca oleracea; details: lowest tested rate giving 80% or greater inhibition, approx. 14 days after planting and treating, greenhouse
How it was run: as §2

SORHA [9] = assay: Post-emergence herbicidal activity on SORHA (johnsongrass, seedling); format: in vivo, Sorghum halepense; details: post-emergence spray; lowest tested rate with 80% or greater inhibition; about 14 days after treatment
How it was run: as §1

DIGSA [10] = assay: Post-emergence herbicidal activity on DIGSA (large crabgrass); format: in vivo, Digitaria sanguinalis; details: post-emergence spray; lowest tested rate with 80% or greater inhibition; about 14 days after treatment
SETFA [11] = assay: Pre-emergence herbicidal activity on SETFA (giant foxtail); format: in vivo, Setaria faberi; details: lowest tested rate giving 80% or greater inhibition, approx. 14 days after planting and treating, greenhouse
How it was run: as §2

AMARE [12] = assay: Post-emergence herbicidal activity on AMARE (redroot pigweed); format: in vivo, Amaranthus retroflexus; details: post-emergence spray; lowest tested rate with 80% or greater inhibition; about 14 days after treatment
How it was run: as §1

PANDI [13] = assay: Pre-emergence herbicidal activity on PANDI (fall panicum); format: in vivo, Panicum dichotomiflorum; details: lowest tested rate giving 80% or greater inhibition, approx. 14 days after planting and treating, greenhouse
How it was run: as §2

AMARE [14] = assay: Pre-emergence herbicidal activity on AMARE (redroot pigweed); format: in vivo, Amaranthus retroflexus; details: lowest tested rate giving 80% or greater inhibition, approx. 14 days after planting and treating, greenhouse
How it was run: as §2

DATST [15] = assay: Pre-emergence herbicidal activity on DATST (jimsonweed); format: in vivo, Datura stramonium; details: lowest tested rate giving 80% or greater inhibition, approx. 14 days after planting and treating, greenhouse
How it was run: as §2

DIGSA [16] = assay: Pre-emergence herbicidal activity on DIGSA (large crabgrass); format: in vivo, Digitaria sanguinalis; details: lowest tested rate giving 80% or greater inhibition, approx. 14 days after planting and treating, greenhouse
How it was run: as §2

CONAR [17] = assay: Post-emergence herbicidal activity on CONAR (field bindweed); format: in vivo, Convolvulus arvensis; details: post-emergence spray; lowest tested rate with 80% or greater inhibition; about 14 days after treatment
How it was run: as §1

CONAR [18] = assay: Pre-emergence herbicidal activity on CONAR (field bindweed); format: in vivo, Convolvulus arvensis; details: lowest tested rate giving 80% or greater inhibition, approx. 14 days after planting and treating, greenhouse
How it was run: as §2

PANDI [19] = assay: Post-emergence herbicidal activity on PANDI (fall panicum); format: in vivo, Panicum dichotomiflorum; details: post-emergence spray; lowest tested rate with 80% or greater inhibition; about 14 days after treatment
How it was run: as §1

BRAPP [20] = assay: Post-emergence herbicidal activity on BRAPP (broadleaf signalgrass); format: in vivo, Brachiaria platyphylla; details: post-emergence spray; lowest tested rate with 80% or greater inhibition; about 14 days after treatment
How it was run: as §1

SOLNI [21] = assay: Post-emergence herbicidal activity on SOLNI (black nightshade); format: in vivo, Solanum nigrum; details: post-emergence spray; lowest tested rate with 80% or greater inhibition; about 14 days after treatment
How it was run: as §1

POROL [22] = assay: Post-emergence herbicidal activity on POROL (common purslane; table head prints PORAL); format: in vivo, Portulaca oleracea; details: post-emergence spray; lowest tested rate with 80% or greater inhibition; about 14 days after treatment
How it was run: as §1

BRAPP [23] = assay: Pre-emergence herbicidal activity on BRAPP (broadleaf signalgrass); format: in vivo, Brachiaria platyphylla; details: lowest tested rate giving 80% or greater inhibition, approx. 14 days after planting and treating, greenhouse
How it was run: as §2

DATST [24] = assay: Post-emergence herbicidal activity on DATST (jimsonweed); format: in vivo, Datura stramonium; details: post-emergence spray; lowest tested rate with 80% or greater inhibition; about 14 days after treatment
How it was run: as §1

CIRAR [25] = assay: Post-emergence herbicidal activity on CIRAR (canada thistle, seedling); format: in vivo, Cirsium arvense; details: post-emergence spray; lowest tested rate with 80% or greater inhibition; about 14 days after treatment
Source text: All such uses, and the biological activity enabling such uses, are embraced by the term “herbicidal” herein. Tables 15 and 16 summarize results of tests conducted as described below to determine the pre-emergence herbicidal activity, in the form of a GR80 value, of illustrative compounds of this invention. […] Where herbicidal activity was evident but 80% inhibition was not achieved at the highest rate tested (typically 1000 g/ha), an asterisk (*) is shown in the following tables. Herbicidal activity evident in the form of symptoms of phytotoxicity, in the absence of at least 80% inhibition at any rate, is indicated in the tables by “phyto”. A blank cell in the following tables indicates no herbicidal or phytotoxic response at any rate tested.
In another set of tests, the post-emergence activity of compounds of this invention was evaluated on the cool season species listed above. The following procedure was used.
(§3) A pre-prepared topsoil mixture (described above) was placed in a pot and compacted to a depth of 1.0 to 1.25 cm from the top of the pot. Seeds of each of several monocotyledonous and dicotyledonous annual plant species were placed on top of the soil The seeds were covered with a mixture of 50% topsoil and 50% Rediearth™ in sufficient quantity to level-fill the pots. The pots were then placed on a greenhouse bench and subirrigated as needed until plants growing from the seeds had emerged and reached a suitable growth stage for post-emergence treatment, typically 9 to 14 days after planting.
(§4) A known amount of each test compound dissolved or suspended in an appropriate organic solvent was diluted with a 50:50 mix of acetone and water and applied to the plants by spraying with a standard spray nozzle in a spray volume of 3,100 l/ha at a spray pressure of […] (30 psig). Control plants were not sprayed.
(§5) After treatment the plants were placed in a greenhouse with a 30/21° C. day/night temperature regime and were subsequently watered as needed for growth. Approximately 14 days after treatment, the plants were observed and herbicidal efficacy recorded as percent inhibition by comparison with control plants.

SORHA [26] = assay: Pre-emergence herbicidal activity on SORHA (johnsongrass, seedling); format: in vivo, Sorghum halepense; details: lowest tested rate giving 80% or greater inhibition, approx. 14 days after planting and treating, greenhouse
How it was run: as §2

ABUTH = assay: Post-emergence herbicidal activity on ABUTH (velvetleaf); format: in vivo, Abutilon theophrasti; details: post-emergence spray; lowest tested rate with 80% or greater inhibition; about 14 days after treatment
How it was run: as §1

SETFA [27] = assay: Post-emergence herbicidal activity on SETFA (giant foxtail); format: in vivo, Setaria faberi; details: post-emergence spray; lowest tested rate with 80% or greater inhibition; about 14 days after treatment
How it was run: as §1

CHEAL [28] = assay: Pre-emergence herbicidal activity on CHEAL (common lambsquarters); format: in vivo, Chenopodium album; details: lowest tested rate giving 80% or greater inhibition, approx. 14 days after planting and treating, greenhouse
How it was run: as §2

dicotyledonous species = assay: Greenhouse post-emergence test in combination with glyphosate, dicotyledonous species; format: in vivo; details: glyphosate isopropylammonium salt alone at 1000 g a.e./ha
Source text: as §3, §4, §5
(§6) In a greenhouse post-emergence test conducted according to the procedure described hereinabove, R-2-fluoro-3-trifluoromethyl-N-[1-methyl-2-(3-trifluoromethyl)phenylcarbonylamino]ethylbenzamide (the compound of Example 13) was applied at 0, 64, 125 and 250 g/ha in combination with glyphosate isopropylammonium salt at 1000 g a.e./ha. The glyphosate herbicide alone gave 72% control of dicotyledonous species and 84% control of monocotyledonous species. […] At 250 g/ha, addition of the compound of Example 13 gave 93% control of dicotyledonous species, but reduced control of monocotyledonous species to 73%.

monocotyledonous species = assay: Greenhouse post-emergence test in combination with glyphosate, monocotyledonous species; format: in vivo; details: glyphosate isopropylammonium salt alone at 1000 g a.e./ha
Source text: as §3, §4, §5, §6

## C[C@H](CNC(=O)c1cccc(C(F)(F)F)c1)NC(=O)Oc1ccc(F)cc1 [Example 230]
SORVU
  Post-emergence activity (GR80) SORVU: [empty]
ECHCG [1]
  Post-emergence activity (GR80) ECHCG: [empty]
ECHCG [2]
  Pre-emergence activity (GR80) on ECHCG: phyto
CHEAL [3]
  Post-emergence activity (GR80) CHEAL: phyto
SOLNI [4]
  Pre-emergence activity (GR80) on SOLNI: * (Where herbicidal activity was evident but 80% inhibition was not achieved at the highest rate tested (typically 1000 g/ha), an asterisk (*) is shown)
PANMI [5]
  Post-emergence activity (GR80) PANMI: [empty]
CIRAR [6]
  Pre-emergence activity (GR80) on CIRAR: 750 g/ha
PANMI [7]
  Pre-emergence activity (GR80) on PANMI: phyto
POROL [8]
  Pre-emergence activity (GR80) on PORAL: 500 g/ha
SORHA [9]
  Post-emergence activity (GR80) SORHA: [empty]
DIGSA [10]
  Post-emergence activity (GR80) DIGSA: phyto
SETFA [11]
  Pre-emergence activity (GR80) on SETFA: * (Where herbicidal activity was evident but 80% inhibition was not achieved at the highest rate tested (typically 1000 g/ha), an asterisk (*) is shown)
AMARE [12]
  Post-emergence activity (GR80) AMARE: phyto
PANDI [13]
  Pre-emergence activity (GR80) on PANDI: 1000 g/ha
AMARE [14]
  Pre-emergence activity (GR80) on AMARE: 500 g/ha
DATST [15]
  Pre-emergence activity (GR80) on DATST: 750 g/ha
DIGSA [16]
  Pre-emergence activity (GR80) on DIGSA: 750 g/ha
CONAR [17]
  Post-emergence activity (GR80) CONAR: phyto
CONAR [18]
  Pre-emergence activity (GR80) on CONAR: phyto
PANDI [19]
  Post-emergence activity (GR80) PANDI: [empty]
BRAPP [20]
  Post-emergence activity (GR80) BRAPP: [empty]
SOLNI [21]
  Post-emergence activity (GR80) SOLNI: [empty]
POROL [22]
  Post-emergence activity (GR80) PORAL: phyto
BRAPP [23]
  Pre-emergence activity (GR80) on BRAPP: phyto
DATST [24]
  Post-emergence activity (GR80) DATST: phyto
CIRAR [25]
  Post-emergence activity (GR80) CIRAR: [empty]
SORHA [26]
  Pre-emergence activity (GR80) on SORHA: phyto
ABUTH
  Post-emergence activity (GR80) ABUTH: [empty]
SETFA [27]
  Post-emergence activity (GR80) SETFA: [empty]
CHEAL [28]
  Pre-emergence activity (GR80) on CHEAL: 1000 g/ha

## glyphosate isopropylammonium salt [reference compound]
Dicotyledonous species
  control of dicotyledonous species: 72%
Monocotyledonous species
  control of monocotyledonous species: 84%
